Results as given in article PMC9090415, “Discovery of small molecule inhibitors of Plasmodium falciparum apicoplast DNA polymerase” (Journal of Enzyme Inhibition and Medicinal Chemistry, 2022).

Biological target: P. falciparum apicoplast DNA polymerase (Pf-apPOL) (Plasmodium falciparum, UniProt Q8ILY1)
Assay: Fluorescence-based high-throughput DNA polymerase assay (molecular beacon), primary screen and dose-response;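 as to % inhibition ApPOL 90': test concentration in µM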;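 as to % inhibition apPOL 180': test concentration in µM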
Type: biochemical
Settings: for DNA Pol: 90 min, 10 µM
Method in brief: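 Single-point screening used 10 µM compound with 20 nM polymerase, 20 nM hairpin substrate and 6 µM dNTPs for 90 min at 25 °C. Confirmatory titrations (2.5–80 µM) followed fluorescence at three times, and IC50 was derived from a fit including a cooperativity term n.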

Chain of P. falciparum apicoplast DNA polymerase (Pf-apPOL) (Q8ILY1 entry or part of it): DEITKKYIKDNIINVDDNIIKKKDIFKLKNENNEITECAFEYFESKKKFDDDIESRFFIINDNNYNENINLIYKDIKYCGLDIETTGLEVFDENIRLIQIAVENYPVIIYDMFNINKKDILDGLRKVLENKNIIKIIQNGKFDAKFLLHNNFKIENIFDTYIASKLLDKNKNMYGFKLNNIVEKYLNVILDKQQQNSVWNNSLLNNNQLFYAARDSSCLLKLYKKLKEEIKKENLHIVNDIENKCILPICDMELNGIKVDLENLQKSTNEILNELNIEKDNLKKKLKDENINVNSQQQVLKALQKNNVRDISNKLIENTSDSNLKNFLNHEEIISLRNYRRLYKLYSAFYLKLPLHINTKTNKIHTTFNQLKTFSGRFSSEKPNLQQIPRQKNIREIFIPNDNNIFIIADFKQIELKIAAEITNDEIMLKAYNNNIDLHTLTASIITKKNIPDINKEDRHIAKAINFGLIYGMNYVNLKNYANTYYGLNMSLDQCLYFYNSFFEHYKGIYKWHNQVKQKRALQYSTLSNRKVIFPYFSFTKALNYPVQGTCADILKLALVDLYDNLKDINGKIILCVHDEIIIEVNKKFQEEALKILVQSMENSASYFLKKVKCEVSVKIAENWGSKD

## O=C(CSc1nc2ccccc2s1)Nc1ncc([N+](=O)[O-])s1 [KU0019667]
DRC-1, concentration 2.5
  % inhibition Apo pol 10': 10.9138%
  % inhibition Apol 90': 0.4185%
  % inhibition apPOL 180': -6.305%
DRC-1, concentration 5
  % inhibition Apo pol 10': 29.1635%
  % inhibition Apol 90': 12.4734%
  % inhibition apPOL 180': -0.1201%
DRC-1, concentration 10
  % inhibition Apo pol 10': 61.6987%
  % inhibition Apol 90': 42.9699%
  % inhibition apPOL 180': 24.654%
DRC-1, concentration 20
  % inhibition Apo pol 10': 83.6526%
  % inhibition Apol 90': 72.9689%
  % inhibition apPOL 180': 57.312%
DRC-1, concentration 40
  % inhibition Apo pol 10': 89.1806%
  % inhibition Apol 90': 86.0812%
  % inhibition apPOL 180': 80.0815%
DRC-1, concentration 80
  % inhibition Apo pol 10': 87.7336%
  % inhibition Apol 90': 87.9131%
  % inhibition apPOL 180': 84.5661%
DRC-2, concentration 2.5
  % inhibition Apo pol 5': 0.175%
  % inhibition Apol 40': -1.35%
  % inhibition ApPOL 90': -3%
  % inhibition apPOL 180': -13%
DRC-2, concentration 5
  % inhibition Apo pol 5': -22%
  % inhibition Apol 40': -10%
  % inhibition ApPOL 90': -10%
  % inhibition apPOL 180': -17%
DRC-2, concentration 10
  % inhibition Apo pol 5': -38%
  % inhibition Apol 40': -13%
  % inhibition ApPOL 90': -10%
  % inhibition apPOL 180': -18%
DRC-2, concentration 20
  % inhibition Apo pol 5': -73%
  % inhibition Apol 40': -32%
  % inhibition ApPOL 90': -23%
  % inhibition apPOL 180': -23%
DRC-2, concentration 40
  % inhibition Apo pol 5': -86%
  % inhibition Apol 40': -29%
  % inhibition ApPOL 90': -14%
  % inhibition apPOL 180': -7%
DRC-2, concentration 80
  % inhibition Apo pol 5': -130%
  % inhibition Apol 40': -70%
  % inhibition ApPOL 90': -45%
  % inhibition apPOL 180': -23%
conc. 2.5, DRC-2
  % inhibition apPOL 180': -13%
conc. 5, DRC-2
  % inhibition Apol 40': -10%
  % inhibition ApPOL 90': -10%
conc. 10, DRC-2
  % inhibition Apol 40': -13%
  % inhibition ApPOL 90': -10%
conc. 20, DRC-2
  % inhibition ApPOL 90': -23%
  % inhibition apPOL 180': -23%
conc. 80, DRC-2
  % inhibition apPOL 180': -23%
Primary screen value by plate and well
  DNA Pol: 67
Primary screen value of the 186 hits, unit not given
  DNA Pol: 67
